# In ChEMBL document CHEMBL1201862, “PubChem BioAssay data set” (2004):
# The source made the active and inactive calls. Cut-off read from the data, not from the text of the source, for most assays here: actives have a measured EC50 and inactives only a lower limit.
# What was measured:
# [1] = molecular target: T1, Heat shock factor protein 1 (Mus musculus, UniProt P38532); test: enhancement of HSF1-driven luciferase signal – cell-based, NIH3T3, luminescence, dose retest, confirmation (AID 435004); type: functional;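 note: stress induced by proteasome inhibitor MG132 added 30 min after compound; luciferase reporter driven by HSF1 response element in NIH3T3 cells; actives raise luminescence as potentiators of the MG132 stress response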
# T1 sequence (P38532 whole entry): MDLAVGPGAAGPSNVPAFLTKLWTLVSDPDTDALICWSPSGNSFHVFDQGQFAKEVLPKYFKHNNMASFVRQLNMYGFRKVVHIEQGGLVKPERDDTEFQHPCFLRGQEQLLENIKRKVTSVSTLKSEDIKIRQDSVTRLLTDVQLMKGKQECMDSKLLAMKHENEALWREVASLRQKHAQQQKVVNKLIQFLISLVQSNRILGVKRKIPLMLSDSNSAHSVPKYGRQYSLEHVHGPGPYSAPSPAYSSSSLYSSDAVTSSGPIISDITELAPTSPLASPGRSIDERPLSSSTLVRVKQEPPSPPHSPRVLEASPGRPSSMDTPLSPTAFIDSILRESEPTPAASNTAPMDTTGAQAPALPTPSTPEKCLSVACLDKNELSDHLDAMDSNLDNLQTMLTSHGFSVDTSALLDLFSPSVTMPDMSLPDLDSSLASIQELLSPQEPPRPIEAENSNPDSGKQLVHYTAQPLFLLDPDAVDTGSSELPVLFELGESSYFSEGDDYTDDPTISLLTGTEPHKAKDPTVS
# [2] = molecular target: T1, Heat shock factor protein 1; test: decrease of HSF1-responsive luciferase luminescence – cell-based, NIH3T3, dose retest, confirmation (AID 2382); type: functional;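 note: NIH3T3 fibroblasts with HSF1-driven luciferase reporter stressed by proteasome inhibitor MG132; luminescence from HSF1-driven luciferase expression after 8 hours of MG132 stress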
# [3] = viability of uninfected HEp-2 cells – cell-based, HTS, cytotoxicity control for RSV inhibitor project, dose response (AID 2410); type: functional; details: human respiratory syncytial virus
# [4] = Luminescence Cell-Based Dose Retest to Confirm Inhibitors of Cancer Stem Cells. [Related pubchem assays (depositor defined):AID2717, AID2721]; type: functional; details: Homo sapiens
# [5] = Trypanosoma cruzi growth suppression in host cells – NIH3T3 host cells, beta-gal luminescence, confirmation (AID 2044); type: functional, cell-based;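 note: intracellular parasites grown in NIH/3T3 mouse fibroblasts as host cells; luminescent beta-galactosidase reporter signal from transgenic T. cruzi replicating inside host cells; inhibitors lower the luminescence signal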
# [6] = NIH3T3 cell viability loss – ATP luminescence, mouse fibroblasts, counter-screen, dose response (AID 2010); type: functional, cell-based;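 note: cells exposed to compound for about 90 hours before reading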
# Streptococcus = test: GAS UMAA2166 growth inhibition – luminescence, BacTiterGlo, counter-screen for streptokinase expression inhibitor project, dose response (AID 1915); type: functional, organism-based;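 note: potency for reduction of bacterial viability or growth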
# [7] = system: Streptococcus sp. 'group A'; test: Streptococcus pyogenes SK(-)GAS viability under kanamycin – luminescence, BacTiterGlo, confirmation, counter-screen for streptokinase expression inhibitor project, dose response (AID 1900); type: functional, organism-based
# [8] = NIH-3T3 fibroblast cytotoxicity, dose response, cytotoxicity control, cell-based, fluorescence, Alamar Blue, secondary assay (AID 2327); type: functional;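 note: NIH-3T3 mouse fibroblasts cultured with fluconazole at 8 µg/mL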
# [9] = fluconazole-exposed Candida albicans growth modulators – fluorescence, retest, confirmation (AID 2467); type: functional, cell-based
# 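Throughout, for AC50: cells exposed to compound for roughly 70 hours or longer before luminescence read.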
smiles,measurement,setting,value
Cc1cccc2cc(CN(Cc3ccco3)C(c3nnnn3CCc3ccccc3)C(C)C)c(O)nc12 (configuration not stated),EC50,[1],70.3 µM (active)
O=C(O)/C=C\C(=O)Nc1ccc(OCc2ccccc2)cc1,EC50,[2],31 µM (active)
CCS(=O)(=O)Nc1ccc2[nH]c(O)nc2c1,EC50,[1],> 260 µM (inactive)
COc1ccc(Nc2nc(-c3ccccc3)nc3ccccc23)cc1,CC50,[3],13.1 µM (active)
Cc1ccc(/C=C/C(=O)NCCc2ccccc2)o1,AC50,[4],> 195 µM (inactive)
CCOc1ccccc1CN1CCN(CC2=Cc3cc(OC)ccc3OC2)CC1CCO (configuration not stated),EC50,[5],1.29 µM (active)
same,EC50,[6],> 60 µM (not active)
COc1cccc(-c2nc(CCl)cs2)c1,EC50,[5],3.25 µM (active)
same,EC50,[6],> 60 µM (not active)
COc1ccccc1-n1c(O)cc(=O)nc1SCC(=O)Nc1ccc(Br)cc1,EC50,Streptococcus,22.6 µM (active)
same,EC50,[7],6.68 µM (active)
Cc1nc2ccccc2c(N)c1C(=O)/C=C/c1ccccc1,CC50,[3],9.1 µM (active)
CCN(CC)S(=O)(=O)c1ccc(N2CCN(C)CC2)c(NC(=O)COc2ccc(F)cc2Cl)c1,EC50,[5],0.252 µM (active)
same,EC50,[6],> 60 µM (not active)
COC(=O)c1cc(=O)n(Cc2cccs2)/c(=N/c2ccc(F)cc2)s1,AC50,[4],3.81 µM (active)
C=CCOc1c(Cl)cc(CNc2ccc(C)c(Cl)c2)cc1OC,EC50,[5],2.75 µM (active)
same,EC50,[6],0.491 µM (active)
C/C(=N\NC(=O)c1nn(C)c(C)c1Br)c1ccc(NC(=O)C2CCCC2)cc1,EC50,[8],34.4 µM (active)
same,EC50,[9],> 38 µM (not active)
O=C(Nc1ccc(Br)cn1)c1cccc(-c2cc3ccccc3oc2=O)c1,AC50,[4],8.81 µM (active)
CN1CCN(C(=O)CCc2ccc(S(=O)(=O)NC3CCCCC3)cc2)CC1,EC50,[5],0.141 µM (active)
same,EC50,[6],> 60 µM (not active)
COc1ccc(Br)c2oc(SC)cc(=O)c12,CC50,[3],> 50 µM (active)
O=C(Nc1ccc2c(c1)OCO2)c1ccc(COc2ccc3c(c2)CCC3)o1,AC50,[4],3.1 µM (active)
CCOC(=O)c1cnc(SC)nc1Oc1cccc(NS(=O)(=O)c2ccccc2)c1,EC50,[5],1.64 µM (active)
same,EC50,[6],> 60 µM (not active)
O=C(Nc1ccc(Cl)c([N+](=O)[O-])c1)c1ccc(NCCCN2CCOCC2)c([N+](=O)[O-])c1,EC50,[5],0.963 µM (active)
same,EC50,[6],> 60 µM (not active)
Cc1ccc(NC(=O)NC2CCCCCCC2)c(C)c1,EC50,[8],19.6 µM (inconclusive)
same,EC50,[9],> 38 µM (not active)
Cc1ccc(C)c(N2CCN(C(=O)c3cc(S(=O)(=O)N4CCCC4)cn3C)CC2)c1,EC50,[2],> 195 µM (not active)
Cc1sc2ncnc(N3CCC(C(=O)Nc4nc(-c5cccs5)cs4)CC3)c2c1C,EC50,[2],1.07 µM (active)
same,EC50,[5],1.6 µM (active)
same,EC50,[6],> 60 µM (not active)
Cc1ccc(/C=N/NC2=NC(=O)CS2)o1,CC50,[3],21.5 µM (active)
N#Cc1c(F)cccc1N1CCOCC1,CC50,[3],23.6 µM (active)
Cc1[nH]n(-c2cccc3ccccc23)c(=O)c1/C=N/NC(=O)c1cccc([N+](=O)[O-])c1,EC50,[8],12.1 µM (active)
same,EC50,Streptococcus,7.09 µM (active)
same,EC50,[7],2.98 µM (active)
same,EC50,[9],> 38 µM (not active)
O=C(NCc1ccccc1)N1CCC(CO)(Cc2cccc(F)c2)CC1,EC50,[2],> 195 µM (not active)
Cc1ccc(SCCN=C(S)Nc2ccc(C)cc2C)cc1,EC50,[5],2.2 µM (active)
same,EC50,[6],> 60 µM (not active)
c1ccc2c(c1)OCC(c1csc3ncnc(N4CCCCC4)c13)O2 (configuration not stated),CC50,[3],16.8 µM (active)
Cc1nn(CC(=O)NCCCc2ccccc2)c(C)c1[N+](=O)[O-],EC50,[8],> 150 µM (inactive)
Cc1cccc(CN2C(=O)[C@@H]3Cc4c([nH]c5ccccc45)C(C)(C)N3C2=O)c1,AC50,[4],11.9 µM (active)
CCOC(=O)C(O)(c1ccc(NC(=O)c2ccc(Cl)c(Cl)c2)cc1)C(F)(F)F (configuration not stated),CC50,[3],20.9 µM (active)
CC(Oc1ccc(Br)cc1)C(=O)NC1CCN(Cc2ccccc2)CC1 (configuration not stated),EC50,[5],0.579 µM (active)
same,EC50,[6],> 60 µM (not active)
Cc1cc(C)nc(N=C(NCc2ccc3c(c2)OCO3)NC(=O)Nc2ccccc2)n1,EC50,[8],> 150 µM (inactive)
same,EC50,[9],> 38 µM (not active)
Cc1nnc(-c2cnn(-c3ccccc3)c2N)n1Cc1cccc(C(F)(F)F)c1,EC50,[2],> 195 µM (not active)
